Organism: Rattus norvegicus
Type: toxicity, organism-based, Sprague-Dawley
Details: in vivo, po, 24 h, route oral GAVAGE, time 1 day, vehicle .5 % CMC; for ABSOLUTE EOSINOPHIL / ABSOLUTE LYMPHOCYTE / ABSOLUTE MONOCYTE / ABSOLUTE SEGMENTED NEUTROPHIL / BASOPHIL / EOSINOPHIL / ERYTHROCYTE COUNT / HEMATOCRIT / HEMOGLOBIN / LEUKOCYTE COUNT / LYMPHOCYTE / MEAN CORPUSCULAR HEMOGLOBIN / MEAN CORPUSCULAR HEMOGLOBIN CONCENTRATION / MEAN CORPUSCULAR VOLUME / MONOCYTE / NEUTROPHIL / NUCLEATED RED BLOOD CELLS / PLATELET COUNT: tissue Blood; for ALANINE AMINOTRANSFERASE / ALBUMIN / ALKALINE PHOSPHATASE / ASPARTATE AMINOTRANSFERASE / BLOOD UREA NITROGEN / CARBON DIOXIDE / CHLORIDE / CHOLESTEROL / CREATININE / GLUCOSE / LACTATE DEHYDROGENASE / LIPASE / PHOSPHORUS / POTASSIUM / SODIUM / TOTAL BILIRUBIN / TOTAL PROTEIN / URIC ACID: tissue Plasma
[1] = 0 mg/kg, vehicle control, dose level Control

Description: DrugMatrix - Regimen: Single

COc1ccccc1[N+](=O)[O-] [2-NITROANISOLE]
ABSOLUTE EOSINOPHIL [1]: 150 CELLS/uL | ABSOLUTE LYMPHOCYTE [1]: 13279.83 CELLS/uL | ABSOLUTE MONOCYTE [1]: 654.5 CELLS/uL | ABSOLUTE SEGMENTED NEUTROPHIL [1]: 1565.67 CELLS/uL | BASOPHIL [1]: 0% | EOSINOPHIL [1]: 1% | ERYTHROCYTE COUNT [1]: 5.36 x10E6/uL | HEMATOCRIT [1]: 33.37% | HEMOGLOBIN [1]: 12.52 G/DL | LEUKOCYTE COUNT [1]: 15.65 x10E3/uL | LYMPHOCYTE [1]: 84.83% | MEAN CORPUSCULAR HEMOGLOBIN [1]: 23.4 pg | MEAN CORPUSCULAR HEMOGLOBIN CONCENTRATION [1]: 37.52 G/DL | MEAN CORPUSCULAR VOLUME [1]: 62.32 fL | MONOCYTE [1]: 4.17% | NEUTROPHIL [1]: 10% | NUCLEATED RED BLOOD CELLS [1]: 0 /100WBC | PLATELET COUNT [1]: 1020 x10E3/uL | ALANINE AMINOTRANSFERASE [1]: 49 u/L | ALBUMIN [1]: 4.47 G/DL | ALKALINE PHOSPHATASE [1]: 361.17 u/L | ASPARTATE AMINOTRANSFERASE [1]: 78.67 u/L | BLOOD UREA NITROGEN [1]: 13.17 mg/dL | CARBON DIOXIDE [1]: 29.67 mmol/L | CHLORIDE [1]: 100.83 MEQ/L | CHOLESTEROL [1]: 82.17 mg/dL | CREATININE [1]: 0.15 mg/dL | GLUCOSE [1]: 150.83 mg/dL | LACTATE DEHYDROGENASE [1]: 239.17 u/L | LIPASE [1]: 7.83 u/L | PHOSPHORUS [1]: 13.82 mg/dL | POTASSIUM [1]: 6.62 MEQ/L | SODIUM [1]: 144.25 MEQ/L | TOTAL BILIRUBIN [1]: 0.15 mg/dL | TOTAL PROTEIN [1]: 6.2 G/DL | URIC ACID [1]: 1.57 mg/dL | ABSOLUTE EOSINOPHIL (740 mg/kg, dose level High): 270.67 CELLS/uL | ABSOLUTE LYMPHOCYTE (740 mg/kg, dose level High): 12900.33 CELLS/uL | ABSOLUTE MONOCYTE (740 mg/kg, dose level High): 775.33 CELLS/uL | ABSOLUTE SEGMENTED NEUTROPHIL (740 mg/kg, dose level High): 1353.67 CELLS/uL | BASOPHIL (740 mg/kg, dose level High): 0% | EOSINOPHIL (740 mg/kg, dose level High): 2% | ERYTHROCYTE COUNT (740 mg/kg, dose level High): 5.82 x10E6/uL | HEMATOCRIT (740 mg/kg, dose level High): 35.73% | HEMOGLOBIN (740 mg/kg, dose level High): 13 G/DL | LEUKOCYTE COUNT (740 mg/kg, dose level High): 15.3 x10E3/uL | LYMPHOCYTE (740 mg/kg, dose level High): 84.33% | MEAN CORPUSCULAR HEMOGLOBIN (740 mg/kg, dose level High): 22.4 pg | MEAN CORPUSCULAR HEMOGLOBIN CONCENTRATION (740 mg/kg, dose level High): 36.43 G/DL | MEAN CORPUSCULAR VOLUME (740 mg/kg, dose level High): 61.43 fL | MONOCYTE (740 mg/kg, dose level High): 5% | NEUTROPHIL (740 mg/kg, dose level High): 8.67% | NUCLEATED RED BLOOD CELLS (740 mg/kg, dose level High): 0 /100WBC | PLATELET COUNT (740 mg/kg, dose level High): 1078.67 x10E3/uL | ALANINE AMINOTRANSFERASE (740 mg/kg, dose level High): 63 u/L | ALBUMIN (740 mg/kg, dose level High): 4.53 G/DL | ALKALINE PHOSPHATASE (740 mg/kg, dose level High): 432.67 u/L | ASPARTATE AMINOTRANSFERASE (740 mg/kg, dose level High): 85.67 u/L | BLOOD UREA NITROGEN (740 mg/kg, dose level High): 13 mg/dL | CARBON DIOXIDE (740 mg/kg, dose level High): 29 mmol/L | CHLORIDE (740 mg/kg, dose level High): 102.33 MEQ/L | CHOLESTEROL (740 mg/kg, dose level High): 77.67 mg/dL | CREATININE (740 mg/kg, dose level High): 0.2 mg/dL | GLUCOSE (740 mg/kg, dose level High): 124.33 mg/dL | LACTATE DEHYDROGENASE (740 mg/kg, dose level High): 283.67 u/L | LIPASE (740 mg/kg, dose level High): 9 u/L | PHOSPHORUS (740 mg/kg, dose level High): 12.9 mg/dL | POTASSIUM (740 mg/kg, dose level High): 7.13 MEQ/L | SODIUM (740 mg/kg, dose level High): 144.43 MEQ/L | TOTAL BILIRUBIN (740 mg/kg, dose level High): 0.27 mg/dL | TOTAL PROTEIN (740 mg/kg, dose level High): 6.03 G/DL | URIC ACID (740 mg/kg, dose level High): 1.33 mg/dL

From ChEMBL document CHEMBL3885881, “DrugMatrix”
